In patent US20250313548A1 (Actio Biosciences, Inc., priority 2023, published 2025):

target: human, KCNT1 (Homo sapiens (Human), UniProt Q5JUK3); test: FLIPR Tl/K Flux Assay; format: cell-based; conditions: HEK293 cells stably expressing human KCNT1; Tl+ flux stimulated with EC80 of agonist Loxapine
Procedure, shortened: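 HEK293 cells stably expressing human KCNT1 were loaded with FLIPR potassium dye in HEPES/HBSS pH 7.4 with 5 mM probenecid, 1 h at 25 °C, then given test compound for 30 min at 25 °C. Tl+ flux was triggered with chloride-free buffer containing Tl+ and EC80 loxapine and read 160 s. IC50 came from Hill fits of % inhibition.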

Chain of human, KCNT1 (Q5JUK3 whole entry): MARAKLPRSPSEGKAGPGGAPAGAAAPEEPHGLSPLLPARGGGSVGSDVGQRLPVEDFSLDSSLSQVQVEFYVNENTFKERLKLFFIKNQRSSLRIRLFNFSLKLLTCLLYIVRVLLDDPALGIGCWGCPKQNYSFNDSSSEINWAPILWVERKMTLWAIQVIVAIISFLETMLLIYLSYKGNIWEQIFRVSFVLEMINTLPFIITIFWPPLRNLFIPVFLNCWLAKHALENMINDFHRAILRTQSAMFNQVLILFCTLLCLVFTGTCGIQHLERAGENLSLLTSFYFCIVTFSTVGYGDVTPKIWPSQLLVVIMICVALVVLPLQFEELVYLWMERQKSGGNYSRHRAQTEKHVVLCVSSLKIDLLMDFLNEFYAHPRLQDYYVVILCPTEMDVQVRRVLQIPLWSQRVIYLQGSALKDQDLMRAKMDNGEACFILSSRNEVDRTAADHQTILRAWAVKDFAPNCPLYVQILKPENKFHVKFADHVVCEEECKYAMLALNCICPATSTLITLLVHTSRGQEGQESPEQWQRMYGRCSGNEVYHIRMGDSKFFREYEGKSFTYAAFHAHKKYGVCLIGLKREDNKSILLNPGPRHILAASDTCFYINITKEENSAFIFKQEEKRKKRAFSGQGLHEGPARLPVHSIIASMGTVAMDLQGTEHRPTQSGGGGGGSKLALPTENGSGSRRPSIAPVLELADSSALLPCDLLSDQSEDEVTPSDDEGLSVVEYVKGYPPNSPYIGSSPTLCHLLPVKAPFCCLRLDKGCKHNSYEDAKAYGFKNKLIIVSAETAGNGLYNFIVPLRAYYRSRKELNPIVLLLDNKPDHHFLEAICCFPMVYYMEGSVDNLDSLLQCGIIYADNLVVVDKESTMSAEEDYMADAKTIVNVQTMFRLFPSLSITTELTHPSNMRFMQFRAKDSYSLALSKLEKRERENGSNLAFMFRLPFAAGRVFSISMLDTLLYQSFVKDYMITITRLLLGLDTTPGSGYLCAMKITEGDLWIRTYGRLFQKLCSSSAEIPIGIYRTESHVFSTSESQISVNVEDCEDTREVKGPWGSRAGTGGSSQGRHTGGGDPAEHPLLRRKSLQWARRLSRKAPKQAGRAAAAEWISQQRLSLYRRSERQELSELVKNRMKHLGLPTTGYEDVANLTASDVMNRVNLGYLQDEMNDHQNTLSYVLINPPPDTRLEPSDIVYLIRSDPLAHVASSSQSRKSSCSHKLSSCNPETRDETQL

Row | IC50 | Molecule
1 | < 0.25 µM | Cc1nn(C(F)(F)F)cc1C(=O)N[C@H]1CCn2nc(-c3ccnc(C(F)(F)F)c3)cc21 [Compound I-556a]
2 | < 0.25 µM | Cc1nn(C(F)(F)F)cc1C(=O)N[C@H]1CCCc2oc(-c3ccnc(C(F)(F)F)c3)nc21 [Compound I-557a, (S)-3-Methyl-1-(trifluoromethyl)-N-(2-(2-(trifluoromethyl)pyridin-4-yl)-4,5,6,7-tetrahydrobenzo[d]oxazol-4-yl)-1H-pyrazole-4-carboxamide]
3 | < 0.25 µM | O=C(N[C@H]1CCn2nc(-c3cc(C(F)(F)F)ncc3F)cc21)C12CC(CC(F)F)(C1)C2 [Compound I-558a, (S)-3-(2,2-Difluoroethyl)-N-(2-(5-fluoro-2-(trifluoromethyl)pyridin-4-yl)-5,6-dihydro-4H-pyrrolo[1,2-b]pyrazol-4-yl)bicyclo[1.1.1]pentane-1-carboxamide]
4 | < 0.25 µM | O=C(N[C@H]1CCn2nc(-c3cc(C4CC4)ncc3F)cc21)C12CC(C(F)(F)F)(C1)C2 [Compound I-559a, (S)-N-(2-(2-Cyclopropyl-5-fluoropyridin-4-yl)-5,6-dihydro-4H-pyrrolo[1,2-b]pyrazol-4-yl)-3-(trifluoromethyl)bicyclo[1.1.1]pentane-1-carboxamide]
5 | < 0.25 µM | COc1cc(C(=O)N[C@H]2CCn3nc(-c4cc(OC)ncc4F)cc32)ccn1 [Compound I-560a, (S)-N-(2-(5-Fluoro-2-methoxypyridin-4-yl)-5,6-dihydro-4H-pyrrolo[1,2-b]pyrazol-4-yl)-2-methoxyisonicotinamide]
6 | < 0.25 µM | COc1cc(F)cc(C(=O)N[C@H]2CCc3nn(-c4ccnc(C(F)(F)F)c4)cc32)c1 [Compound I-561a, (S)-3-Fluoro-5-methoxy-N-(2-(2-(trifluoromethyl)pyridin-4-yl)-2,4,5,6-tetrahydrocyclopenta[c]pyrazol-4-yl)benzamide]
7 | < 0.25 µM | O=C(N[C@H]1CCc2nn(-c3ccnc(C(F)(F)F)c3)cc21)c1cc(F)cc(C2CC2)c1 [Compound I-562a, (S)-3-Cyclopropyl-5-fluoro-N-(2-(2-(trifluoromethyl)pyridin-4-yl)-2,4,5,6-tetrahydrocyclopenta[c]pyrazol-4-yl)benzamide]
8 | < 0.25 µM | CC(C)(O)c1cc(F)cc(C(=O)N[C@H]2CCc3nn(-c4ccnc(C(F)(F)F)c4)cc32)c1 [Compound I-563a, (S)-3-Fluoro-5-(2-hydroxypropan-2-yl)-N-(2-(2-(trifluoromethyl)pyridin-4-yl)-2,4,5,6-tetrahydrocyclopenta[c]pyrazol-4-yl)benzamide]
9 | < 0.25 µM | O=C(N[C@H]1CCc2nn(-c3ccnc(C(F)(F)F)c3)cc21)c1cnc(C(F)(F)F)cn1 [Compound I-564a, (S)-5-(Trifluoromethyl)-N-(2-(2-(trifluoromethyl)pyridin-4-yl)-2,4,5,6-tetrahydrocyclopenta[c]pyrazol-4-yl)pyrazine-2-carboxamide]
10 | < 0.25 µM | O=C(N[C@H]1CCc2nn(-c3ccnc(C(F)(F)F)c3)cc21)c1cncc(C(F)(F)F)n1 [Compound I-565a, (S)-6-(Trifluoromethyl)-N-(2-(2-(trifluoromethyl)pyridin-4-yl)-2,4,5,6-tetrahydrocyclopenta[c]pyrazol-4-yl)pyrazine-2-carboxamide]
11 | < 0.25 µM | O=C(N[C@H]1CCc2nn(-c3ccnc(C(F)(F)F)c3)cc21)c1cnn(C(F)(F)F)c1 [Compound I-566a, (S)-1-(Trifluoromethyl)-N-(2-(2-(trifluoromethyl)pyridin-4-yl)-2,4,5,6-tetrahydrocyclopenta[c]pyrazol-4-yl)-1H-pyrazole-4-carboxamide]
12 | < 0.25 µM | COc1cc(F)cc(C(=O)N[C@H]2CCn3nc(-c4ccnc(C(F)(F)F)c4)cc32)c1 [Compound I-567a, (S)-3-Fluoro-5-methoxy-N-(2-(2-(trifluoromethyl)pyridin-4-yl)-5,6-dihydro-4H-pyrrolo[1,2-b]pyrazol-4-yl)benzamide]
13 | < 0.25 µM | CCOc1cc(F)cc(C(=O)N[C@H]2CCn3nc(-c4ccnc(C(F)(F)F)c4)cc32)c1 [Compound I-568a, (S)-3-Ethoxy-5-fluoro-N-(2-(2-(trifluoromethyl)pyridin-4-yl)-5,6-dihydro-4H-pyrrolo[1,2-b]pyrazol-4-yl)benzamide]
14 | < 0.25 µM | O=C(N[C@H]1CCn2nc(-c3ccnc(C(F)(F)F)c3)cc21)c1cc(F)cc(C2CC2)c1 [Compound I-569a, (S)-3-Cyclopropyl-5-fluoro-N-(2-(2-(trifluoromethyl)pyridin-4-yl)-5,6-dihydro-4H-pyrrolo[1,2-b]pyrazol-4-yl)benzamide]
15 | < 0.25 µM | CC(C)(O)c1cc(F)cc(C(=O)N[C@H]2CCn3nc(-c4ccnc(C(F)(F)F)c4)cc32)c1 [Compound I-570a, (S)-3-Fluoro-5-(2-hydroxypropan-2-yl)-N-(2-(2-(trifluoromethyl)pyridin-4-yl)-5,6-dihydro-4H-pyrrolo[1,2-b]pyrazol-4-yl)benzamide]
16 | < 0.25 µM | O=C(N[C@H]1CCn2nc(-c3ccnc(C(F)(F)F)c3)cc21)c1cnc(C(F)(F)F)cn1 [Compound I-571a, (S)-5-(Trifluoromethyl)-N-(2-(2-(trifluoromethyl)pyridin-4-yl)-5,6-dihydro-4H-pyrrolo[1,2-b]pyrazol-4-yl)pyrazine-2-carboxamide]
17 | < 0.25 µM | O=C(N[C@H]1CCn2nc(-c3ccnc(C(F)(F)F)c3)cc21)c1cnn(C(F)(F)F)c1 [Compound I-573a, (S)-1-(Trifluoromethyl)-N-(2-(2-(trifluoromethyl)pyridin-4-yl)-5,6-dihydro-4H-pyrrolo[1,2-b]pyrazol-4-yl)-1H-pyrazole-4-carboxamide]
18 | < 0.25 µM | CCOc1cc(F)cc(C(=O)N[C@H]2CCn3nc(-c4cc(OC)ncc4F)cc32)c1 [Compound I-574a, (S)-3-Ethoxy-5-fluoro-N-(2-(5-fluoro-2-methoxypyridin-4-yl)-5,6-dihydro-4H-pyrrolo[1,2-b]pyrazol-4-yl)benzamide]
19 | < 0.25 µM | COc1cc(-c2cc3n(n2)CC[C@@H]3NC(=O)c2cnc(C(F)(F)F)cn2)c(F)cn1 [Compound I-575a, (S)-N-(2-(5-Fluoro-2-methoxypyridin-4-yl)-5,6-dihydro-4H-pyrrolo[1,2-b]pyrazol-4-yl)-5-(trifluoromethyl)pyrazine-2-carboxamide]
20 | < 0.25 µM | COc1cc(-c2cc3n(n2)CC[C@@H]3NC(=O)c2cncc(C(F)(F)F)n2)c(F)cn1 [Compound I-576a, (S)-N-(2-(5-Fluoro-2-methoxypyridin-4-yl)-5,6-dihydro-4H-pyrrolo[1,2-b]pyrazol-4-yl)-6-(trifluoromethyl)pyrazine-2-carboxamide]
21 | < 0.25 µM | COc1cc(-c2cc3n(n2)CC[C@@H]3NC(=O)c2cnn(C(F)(F)F)c2)c(F)cn1 [Compound I-577a, (S)-N-(2-(5-Fluoro-2-methoxypyridin-4-yl)-5,6-dihydro-4H-pyrrolo[1,2-b]pyrazol-4-yl)-1-(trifluoromethyl)-1H-pyrazole-4-carboxamide]
22 | < 0.25 µM | COc1cc(F)cc(C(=O)N[C@H]2CCCn3nc(-c4ccnc(C(F)(F)F)c4)cc32)c1 [Compound I-578a, (S)-3-Fluoro-5-methoxy-N-(2-(2-(trifluoromethyl)pyridin-4-yl)-4,5,6,7-tetrahydropyrazolo[1,5-a]pyridin-4-yl)benzamide]
23 | < 0.25 µM | CCOc1cc(F)cc(C(=O)N[C@H]2CCCn3nc(-c4ccnc(C(F)(F)F)c4)cc32)c1 [Compound I-579a]
24 | < 0.25 µM | O=C(N[C@H]1CCCn2nc(-c3ccnc(C(F)(F)F)c3)cc21)c1cc(F)cc(C2CC2)c1 [Compound I-580a, (S)-3-Cyclopropyl-5-fluoro-N-(2-(2-(trifluoromethyl)pyridin-4-yl)-4,5,6,7-tetrahydropyrazolo[1,5-a]pyridin-4-yl)benzamide]
25 | < 0.25 µM | CC(C)(O)c1cc(F)cc(C(=O)N[C@H]2CCCn3nc(-c4ccnc(C(F)(F)F)c4)cc32)c1 [Compound I-581a]
26 | < 0.25 µM | O=C(N[C@H]1CCCn2nc(-c3ccnc(C(F)(F)F)c3)cc21)c1cnc(C(F)(F)F)cn1 [Compound I-582a, (S)-5-(Trifluoromethyl)-N-(2-(2-(trifluoromethyl)pyridin-4-yl)-4,5,6,7-tetrahydropyrazolo[1,5-a]pyridin-4-yl)pyrazine-2-carboxamide]
27 | < 0.25 µM | O=C(N[C@H]1CCn2nc(-c3ccnc(C(F)(F)F)c3)cc21)C12CC(CC(F)(F)F)(C1)C2 [Compound I-583a, (S)-3-(2,2,2-Trifluoroethyl)-N-(2-(2-(trifluoromethyl)pyridin-4-yl)-5,6-dihydro-4H-pyrrolo[1,2-b]pyrazol-4-yl)bicyclo[1.1.1]pentane-1-carboxamide]
28 | < 0.25 µM | O=C(N[C@H]1CCn2nc(-c3ccnc(C4CC4)c3)cc21)C12CC(CC(F)(F)F)(C1)C2 [Compound I-584a, (S)-N-(2-(2-Cyclopropylpyridin-4-yl)-5,6-dihydro-4H-pyrrolo[1,2-b]pyrazol-4-yl)-3-(2,2,2-trifluoroethyl)bicyclo[1.1.1]pentane-1-carboxamide]
29 | < 0.25 µM | O=C(N[C@H]1CCn2nc(-c3ccnc(C(F)(F)F)c3)cc21)[C@@H]1C[C@@H]1C(F)(F)F [I-487^, (1R,2S)-2-(trifluoromethyl)-N—((S)-2-(2-(trifluoromethyl)pyridin-4-yl)-5,6-dihydro-4H-pyrrolo[1,2-b]pyrazol-4-yl)cyclopropane-1-carboxamide]
30 | < 0.25 µM | O=C(N[C@H]1CCn2nc(-c3ccnc(C(F)(F)F)c3)cc21)[C@@H]1C[C@H]1C(F)(F)F [I-488^, (1R,2R)-2-(trifluoromethyl)-N—((S)-2-(2-(trifluoromethyl)pyridin-4-yl)-5,6-dihydro-4H-pyrrolo[1,2-b]pyrazol-4-yl)cyclopropane-1-carboxamide]

Row | Molecule | IC50
31 | (S)-3-Chloro-5-methyl-N-(2-(2-(trifluoromethyl)pyridin-4-yl)-2,4,5,6-tetrahydrocyclopenta[c]pyrazol-4-yl)benzamide [Compound I-129a] | < 0.25 µM
32 | (S)-6-(Trifluoromethyl)-N-(2-(2-(trifluoromethyl)pyridin-4-yl)-5,6-dihydro-4H-pyrrolo[1,2-b]pyrazol-4-yl)pyrazine-2-carboxamide [Compound I-572a] | < 0.25 µM
